Results: US6747027B1, “Thiol sulfonamide metalloprotease inhibitors” (Pharmacia Corporation, priority 1996, dated 2004)

Key:
[1] = biological target: T1, recombinant human MMP-13 (Homo sapiens, UniProt P45452); assay: In vitro metalloprotease inhibition, fluorogenic peptide assay (MMP-13); format: biochemical; settings: recombinant human MMP-13, APMA activated; fluorogenic MCA peptide substrate 4 uM; pH 7.5, room temperature
T1 construct: made in house
Method: (§1) Certain of the compounds prepared in the manner described in Examples 1 to 223 were tested for activity by an in vitro assay. Following the procedures of Knight et al., FEBS Lett. 296(3):263 (1992). Briefly, 4-aminophenylmercuric acetate (APMA) or trypsin activated MMPs were incubated with various concentrations of the inhibitor compound at room temperature for 5 minutes (0.02% 2-mercapto-ethanol added to buffer for thiol compounds with 5 minutes or overnight incubation). More specifically, recombinant human MMP-13 and MMP-1 enzymes were prepared in laboratories of the inventors' employer. MMP-13 was expressed in baculovirus as a proenzyme, and purified first over a heparin agarose column and then over a chelating zinc chloride column. The proenzyme was activated by APMA for use in the assay. MMP-1 expressed in transfected HT-1080 was provided by Dr. Howard Welgus of Washington University, St. Louis, Mo. The enzyme was also activated using APMA and was then purified over a hydroxamic acid column.
(§2) The enzyme substrate is a methoxycoumarin-containing polypeptide having the following sequence:
(§3) MCA-ProLeuGlyLeuDpaAlaArgNH^2, wherein MCA is methoxycoumarin and Dpa is 3-(2,4-dinitrophenyl)-L-2,3-diaminopropionyl alanine. This substrate is commercially available from Baychem as product M-1895.
(§4) The buffer used for assays contained 100 mM Tris-HCl, 100 mM NaCl, 10 mM CaCl2 and 0.05 percent polyethyleneglycol(23) lauryl ether at a pH value of 7.5. Assays were carried out at room temperature, and dimethyl sulfoxide (DMSO) at a final concentration of 1 percent was used to dissolve inhibitor compound.
(§5) The assayed inhibitor compound in DMSO/buffer solution was compared to an equal amount of DMSO/buffer with no inhibitor as control using microfluor™ white plates (Dynatech). The inhibitor or control solution was maintained in the plate for 10 minutes and the substrate was added to provide a final concentration of 4 uM.
(§6) In the absence of inhibitor activity, a fluorogenic peptide is cleaved at the gly-leu peptide bond, separating the highly fluorogenic peptide from a 2.4-dinitrophenyl quencher, resulting in an increase of fluorescence intensity (excitation at 328 nm/emmision at 415 nm). Inhibition was measured as a reduction in fluorescent intensity as a function of inhibitor concentration, using a Perkin Elmer L550 plate reader. The IC50 values were calculated from those values. The results are set forth in the Inhibition Table below, reported in terms of IC50 to three significant figures.

[2] = biological target: T2, recombinant human MMP-1 (Homo sapiens, UniProt P03956); assay: In vitro metalloprotease inhibition, fluorogenic peptide assay (MMP-1); format: biochemical; settings: recombinant human MMP-1, APMA activated; fluorogenic MCA peptide substrate 4 uM; pH 7.5, room temperature
T2 construct: made in house; host or cells: transfected HT-1080 cells (provided by Dr. Howard Welgus, Washington University)
T2 sequence (P03956 100-469): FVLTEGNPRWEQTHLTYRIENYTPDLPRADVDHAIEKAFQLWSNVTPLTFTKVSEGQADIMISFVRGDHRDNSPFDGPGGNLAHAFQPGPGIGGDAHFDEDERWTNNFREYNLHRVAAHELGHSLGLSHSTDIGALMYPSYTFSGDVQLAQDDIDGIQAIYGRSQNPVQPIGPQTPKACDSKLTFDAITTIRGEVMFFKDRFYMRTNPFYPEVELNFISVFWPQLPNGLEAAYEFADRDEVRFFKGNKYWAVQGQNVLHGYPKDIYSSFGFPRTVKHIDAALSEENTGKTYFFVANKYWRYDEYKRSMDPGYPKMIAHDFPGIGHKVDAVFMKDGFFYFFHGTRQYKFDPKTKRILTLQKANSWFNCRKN
Method: as §1, §2, §3, §4, §5, §6

Row | Molecule | IC50 [1] [µM] | IC50 [2] [µM]
1 | CC(C)c1ccc(S(=O)(=O)N[C@H](C)CS)cc1 [Example 72, N-(2-mercapto-1R-methylethyl)-4-isopropylbenzenesulfonamide] | 2.3 | 
2 | CCCOc1ccc(S(=O)(=O)N(C)[C@H](C)CS)cc1 [Example 37C, N-(2-Mercapto-1R-methylethyl)-N-methyl-4-(n-propyloxy)benzenesulfonamide] | 0.005 | 1.5
3 | COc1ccc(S(=O)(=O)N(CCS)Cc2ccccc2)cc1 [Example 7C, N-(2-Mercaptoethyl)-N-(phenylmethyl)-4-methoxybenzenesulfonamide] | 0.3 | 4
4 | C[C@H](CS)NS(=O)(=O)c1ccc(C(F)(F)F)cn1 [Example 148] | > 10 | 
5 | C[C@H](CSC(=O)C(C)(C)C)N(CCN1CCOCC1)S(=O)(=O)c1ccc(Sc2ccccc2)cc1 [Example 133] | 4.2 | > 10
6 | COc1ccc(S(=O)(=O)N[C@H](C)CS)cc1OC [Example 100] | > 10 | > 10
7 | C[C@H](CS)N(CCN1CCCCC1)S(=O)(=O)CCCSc1ccccc1 [Example 52, N-(2-Mercapto-1R-methylethyl)-N-[2-(1-piperidino)ethyl](3-thiophenylpropyl)sulphonamide] | 0.045 | > 10
8 | N-(1R-Mercaptomethyl)propyl-N-methyl-4-(n-butoxy)benzenesulfonamide [Example 23C] | 0.15 | 4
9 | C[C@H](CS)NS(=O)(=O)c1ccc(C#N)cc1 [Example 76, N-(2-mercapto-1R-methylethyl)-4-cyanobenzenesulfonamide] | 8.8 | 3.5
10 | C[C@H](CS)NS(=O)(=O)c1ccc(I)cc1 [Example 66, N-(2-mercapto-1R-methylethyl)-4-iodobenzenesulfonamide] | 0.038 | 
11 | CCCCOc1ccc(S(=O)(=O)N(C)[C@H](C)CSSC[C@@H](C)N(C)S(=O)(=O)c2ccc(OCCCC)cc2)cc1 [Example 18] | 0.39 | > 10
12 | COc1ccc(-c2ccc(S(=O)(=O)N(CCN3CCOCC3)[C@@H](CS)C(N)=O)cc2)cc1 [Example 131] | < 0.0001 | 0.07
13 | COc1ccc(S(=O)(=O)N(C)CCc2ccccc2S)cc1 [Example 130] | 3.3 | > 10
14 | CCCCOc1ccc(S(=O)(=O)N[C@@H](CS)C(N)=O)cc1 [Example 201] | 0.0033 | 7
15 | CCCCOc1ccc(S(=O)(=O)N[C@@H](CS)C(=O)O)cc1 [Example 181] | 3 | > 10
16 | C[C@H](CS)N(C)S(=O)(=O)c1ccc(-c2ccccn2)s1 [Example 156] | 0.0073 | 1.07
17 | CCCCOc1cc(C(C)(C)CC(C)(C)C)ccc1S(=O)(=O)N[C@H](C)CS [Example 207] | > 10 | 
18 | C[C@H](CS)NS(=O)(=O)c1ccc(-c2ccon2)s1 [Example 88, N-(2-mercapto-1R-methylethyl)-5-(isoxazol-3-yl)-2-thiophenesulfonamide] | 0.365 | 
19 | C[C@H](CS)NS(=O)(=O)c1ccc(C(C)(C)C)cc1 [Example 74, N-(2-mercapto-1R-methylethyl)-4-(t-butyl)benzenesulfonamide] | > 10 | 
20 | N-(2-mercapto-1R-methylethyl)-4-(n-butyl)benzenesulfonamide [Example 69] | 0.175 | 
21 | C[C@H](CS)NS(=O)(=O)c1cc(C(F)(F)F)n(C)n1 [Example 149] | > 10 | 
22 | COc1ccc(S(=O)(=O)N(CCCSC(C)=O)Cc2ccccc2)cc1 [Example 98] | > 10 | 
23 | C[C@H](CS)NS(=O)(=O)c1cc(Br)c(Cl)s1 [Example 152] | 3 | 
24 | C[C@H](CS)NS(=O)(=O)c1ccc(Br)cc1OC(F)(F)F [Example 204] | > 10 | 
25 | C[C@H](CS)NS(=O)(=O)c1cn(C)cn1 [Example 214] | > 10 | 
26 | C[C@H](CS)NS(=O)(=O)c1ccc(F)c(F)c1 [Example 81, N-(2-mercapto-1R-methylethyl)-3,4-difluoro-benzenesulfonamide] | 6.5 | 

Row | Molecule | IC50 [1] [µM] | IC50 [2] [µM]
27 | CC(C)c1cc(C(C)C)c(S(=O)(=O)N[C@H](C)CS)c(C(C)C)c1 [Example 80, N-(2-mercapto-1R-methylethyl)-2,4,6-triisopropyl-benzenesulfonamide] | > 10 | 
28 | COc1ccc(S(=O)(=O)N[C@H](C)CS)c([N+](=O)[O-])c1 [Example 109] | > 10 | 
29 | Cc1cc(C)c(S(=O)(=O)N[C@H](C)CS)c(C)c1 [Example 79, N-(2-mercapto-1R-methylethyl)-2,4,6-trimethyl-benzenesulfonamide] | > 10 | 
30 | C[C@H](CS)NS(=O)(=O)c1ccc(Cl)s1 [Example 86, N-(2-mercapto-1R-methylethyl)-5-chloro-2-thiophenesulfonamide] | 1.7 | 
31 | C[C@H](CS)NS(=O)(=O)c1ccc(CNC(=O)c2ccccc2)s1 [Example 146] | > 10 | 
32 | C[C@H](CS)NS(=O)(=O)c1ccccc1 (single isomer, unassigned) [Example 151] | > 10 | 
33 | COc1ccc(S(=O)(=O)N(Cc2ccccc2)CC(C)S)cc1 (centres unmarked) [Example 10] | 0.55 | 
34 | C[C@H](CS)NS(=O)(=O)c1ccc(Oc2cccc(Cl)c2C#N)cc1 [Example 108] | 0.5 | 
35 | C[C@H](CS)NS(=O)(=O)c1ccc(Br)s1 [Example 85, N-(2-mercapto-1R-methylethyl)-5-bromo-2-thiophenesulfonamide] | 9 | 
36 | CCc1ccc(S(=O)(=O)N[C@H](C)CS)cc1 [Example 67, N-(2-mercapto-1R-methylethyl)-4-ethylbenzenesulfonamide] | 0.57 | 
37 | COc1ccc(S(=O)(=O)N(CCCS)Cc2ccccc2)cc1 [Example 97] | 4 | 
38 | CCc1cc(Br)ccc1S(=O)(=O)N[C@H](C)CS [Example 195] | 0.464 | 
39 | C[C@H](CS)NS(=O)(=O)c1ccc(CNC(=O)c2ccc(Cl)cc2)s1 [Example 153] | > 10 | 
40 | C[C@H](CS)NS(=O)(=O)c1ccc2oc3ccccc3c2c1 [Example 90, N-(2-mercapto-1R-methylethyl)-2-dibenzofuransulfonamide] | 0.6 | 
41 | COC(=O)c1ccccc1S(=O)(=O)N[C@H](C)CS [Example 198] | 2.3 | 
42 | CCCCCCCCCCCCCCCCOc1ccc(S(=O)(=O)N[C@H](C)CS)cc1 [Example 105] | 3.5 | 
43 | C[C@H](CS)NS(=O)(=O)c1cccc2cccnc12 [Example 206] | > 10 | 
44 | C[C@H](CS)NS(=O)(=O)c1ccc(C(F)(F)F)cc1 [Example 73, N-(2-mercapto-1R-methylethyl)-4-(trifluoromethyl)-benzenesulfonamide] | 2.1 | 
45 | CCCCOc1ccc(S(=O)(=O)N[C@@H](CS)C(=O)O)cc1 [Example 210] | 1.32 | 
46 | C[C@H](CS)NS(=O)(=O)c1ccc(OCC(F)(F)F)cc1OCC(F)(F)F [Example 104] | > 10 | 
47 | C[C@H](CS)NS(=O)(=O)c1ccccc1C(F)(F)F [Example 196] | > 10 | 
48 | CSc1nccc(S(=O)(=O)N[C@H](C)CS)n1 [Example 150] | 9 | 
49 | N-(2-mercapto-1R-methylethyl)-2-napthylenesulfonamide [Example 83] | 1.15 | 
50 | N-(2-mercapto-1R-methylethyl)-2-(trifluoromethyoxy)-benzenesulfonamide [Example 77] | > 10 | 
51 | C[C@H](CS)NS(=O)(=O)c1sc(Br)cc1Br [Example 87, N-(2-mercapto-1R-methylethyl)-3,5-dibromo-2-thiophenesulfonamide] | 8.5 | 
52 | C[C@H](CS)NS(=O)(=O)c1ccc(Cl)cc1 [Example 64, N-(2-mercapto-1R-methylethyl)-4-chlorobenzenesulfonamide] | 0.9 | 
